{
  "source": "patent US12625139B2",
  "about": "“Methods for modulation of acetyltransferase activity and applications thereof including treatments” (The Board of Trustees of the Leland Stanford Junior …, priority 2019, dated 2026)",
  "note": "Structures can show the parent of a compound that is named as a salt.",
  "data": [
    {"biological_target": "T1, recombinant HAT1 (Homo sapiens, UniProt O14929)", "T1 construct": "FLAG (DYKDDDDK); made in house; host or cells: HEK-293f freestyle cells (human), forskolin-treated; purified by FLAG immunoprecipitation", "T1 sequence (O14929 1-419)": "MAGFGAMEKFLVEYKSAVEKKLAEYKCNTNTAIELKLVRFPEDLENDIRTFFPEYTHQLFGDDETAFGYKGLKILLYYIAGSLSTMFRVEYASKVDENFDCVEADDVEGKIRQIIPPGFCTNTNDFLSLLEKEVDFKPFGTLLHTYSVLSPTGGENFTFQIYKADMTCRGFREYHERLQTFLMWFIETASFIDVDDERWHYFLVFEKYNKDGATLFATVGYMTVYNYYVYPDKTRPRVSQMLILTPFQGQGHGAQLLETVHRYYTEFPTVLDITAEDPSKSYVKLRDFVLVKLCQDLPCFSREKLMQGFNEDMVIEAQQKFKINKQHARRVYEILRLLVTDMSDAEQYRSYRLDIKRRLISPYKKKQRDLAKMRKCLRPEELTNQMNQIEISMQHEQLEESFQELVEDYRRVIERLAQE", "test": "HAT1 modulator assay (4-pentynoyl CoA, click chemistry, streptavidin-HRP fluorescence)", "assay_type": "biochemical", "settings": "HAT1 assay; FIGS. 7B and 9", "excerpt": "(§1) Provided in FIG. 4 is an exemplary embodiment of an experimental assay to identify modulators of HAT1. To begin the assay, a putative modulator is mixed with the substrate histone H4 N-terminal peptide, the acetyl-like donor 4-pentynonyl CoA, and recombinant HAT1. The H4 N-terminal peptide is the first 23 amino acids of H4 (SEQ. ID No. 1) with a biotin conjugated at the C-terminus of the peptide. Importantly, K5 and K12 of the H4 N-terminal peptide are available for di-acetylation. The 4-pentynoyl CoA is an acetyl CoA derivative having an […] extending from the acetyl group. The recombinant HAT1 is produced in human cells with a peptide tag […] (FLAG®), which is purified via immunoprecipitation.\n(§2) Each reaction is carried out within a well of a 96-well plate for one hour at 37° C., resulting in pentynoylation of K5 and K12 of the substrate peptide. The reactions are transferred to a neutravidin-coated 96-well plate to capture the biotinylated peptide via a neutravidin-biotin interaction performed for one hour at room temperature. After washing the wells 3X with PBS-tween, the substrate peptides are exposed to biotinylated azide, which reacts with the pentynoyl groups in a copper (I) click chemistry reaction to further functionalize these appendages with biotin, which is performed at 37° C. for 1 hour. Substrates that were acetylated by HAT1 now have an available biotin extending from K5 and K12. After washing the wells 3X with PBS-tween, streptavidin-HRP is added to the well to bind to every available biotin for one hour at 37° C. After washing the wells 3X with PBS-tween, 10-Acetyl-3,7-dihydroxyphenoxazine (Amplex® Red ThermoFisher® Scientific, Waltham, MA) is added as a substrate of HRP and incubated for 30 minutes to produce a detectable fluorescence (570 nm excitation and 585 nm emission), which is measurable utilizing a plate reader.\n(§3) The HAT1 enzymatic reaction conditions was also optimized, utilizing 0.1M EDTA, 0.1M DTT or both. As portrayed in the right panel of FIG. 5, 0.1M DTT provided the best activity and was utilized in the assay reaction.\n(§4) FIG. 6 provides HAT1 enzyme kinetics (left panel) and Michaelis-Menten analysis (right panel). To perform the enzyme kinetics, various amounts of input enzyme were tested in 20 uL reaction with the amount of activity measured over time. […] Assay reactions were run with 15 μM of substrate peptide.", "values": [
      {"molecule": "CC[C@@]1(O)C[C@H](O[C@H]2C[C@H](N(C)C)[C@H](O)[C@H](C)O2)c2c(O)c3c(c(O)c2[C@H]1O[C@H]1C[C@H](N(C)C)[C@H](O)[C@H](C)O1)C(=O)c1cccc(O)c1C3=O", "note": "[NSC 136044, rhodomycin A]", "inhibition of HAT1 activity": "various ability to inhibit HAT1"},
      {"molecule": "COc1cccc2c1C(=O)c1c(O)c3c(c(O)c1C2=O)CC(O)(/C(C)=N/O)CC3OC1CC(N)C(O)C(C)O1", "note": "(stereo not drawn) [NSC 143491, daunomycin 3-oxime hydrochloride]", "inhibition of HAT1 activity": "various ability to inhibit HAT1"},
      {"molecule": "CC[C@@]1(O)C[C@H](O[C@H]2C[C@H](N(C)C)[C@H](O[C@H]3C[C@H](O)[C@H](O[C@H]4CCC(=O)[C@H](C)O4)[C@H](C)O3)[C@H](C)O2)c2c(cc3c(c2O)C(=O)c2c(O)cccc2C3=O)[C@H]1C(=O)OC", "note": "[NSC 208734, aclacinomycin A1]", "inhibition of HAT1 activity": "various ability to inhibit HAT1"},
      {"molecule": "CC[C@@]1(O)C[C@H](O[C@H]2C[C@H](N(C)C)[C@H](O[C@H]3C[C@@H]4O[C@H]5CC(=O)[C@H](C)O[C@H]5O[C@@H]4[C@H](C)O3)[C@H](C)O2)c2c(cc3c(c2O)C(=O)c2c(O)ccc(O)c2C3=O)[C@H]1C(=O)OC", "note": "[NSC 243023, cinerubin B]", "inhibition of HAT1 activity": "various ability to inhibit HAT1"},
      {"molecule": "CC[C@@]1(O)C[C@H](OC2CC(N(C)C)C(OC3CC(O)C(OC4CC(O)C(O)C(C)O4)C(C)O3)C(C)O2)c2c(cc3c(c2O)C(=O)c2c(O)ccc(O)c2C3=O)[C@H]1C(=O)OC", "note": "(stereo partly drawn) [NSC 265211, Methyl (1R,2R,4S)-4-[5-[5-(4,5-dihydroxy-6-methyloxan-2-yl)oxy-4-hydroxy-6-methyloxan-2-yl]oxy-4-(dimethylamino)-6-methyloxan-2-yl]oxy-2-ethyl-2,5,7,10-tetrahydroxy-6,11-dioxo-3,4-dihydro-1H-tetracene-1-carboxylate]", "inhibition of HAT1 activity": "various ability to inhibit HAT1"},
      {"molecule": "COC1C(C)OC(OC2CC(C)(O)Cc3cc4c(c(O)c32)C(=O)c2c(O)cc3c(c2C4=O)OC2OC3(C)C(O)C(N(C)C)C2O)C(OC)C1(C)OC", "note": "(stereo not drawn) [NSC 265450, nagalomycin C]", "inhibition of HAT1 activity": "various ability to inhibit HAT1"},
      {"molecule": "CC[C@@]1(O)C[C@H](O[C@H]2C[C@H](N(C)C)[C@H](O)[C@H](C)O2)c2c(cc3c(c2O)C(=O)c2c(O)ccc(O)c2C3=O)[C@H]1C(=O)OC", "note": "[NSC 267229, pyrromycin]", "inhibition of HAT1 activity": "various ability to inhibit HAT1"},
      {"molecule": "COc1cccc2c1C(=O)c1c(O)c3c(c(O)c1C2=O)C[C@@](O)(C(C)=O)C[C@@H]3OC1CC(N(Cc2ccccc2)Cc2ccccc2)C(O)C(C)O1.Cl", "note": "(stereo partly drawn) [NSC 268242, N,N-Dibenzyldaunorubicin]", "inhibition of HAT1 activity": "various ability to inhibit HAT1"},
      {"molecule": "CC(C)(COP(=O)(O)OP(=O)(O)OC[C@H]1O[C@@H](n2cnc3c(N)ncnc32)[C@H](O)[C@@H]1OP(=O)(O)O)[C@@H](O)C(=O)NCCC(=O)NCCSC(=O)[C@@H](N)CCCCN", "note": "[lysyl CoA, reference compound]", "inhibition of HAT1 activity": "did not inhibit HAT1 activity"}
    ]},
    {"biological_target": "T1, recombinant HAT1", "test": "HAT1 modulator assay (4-pentynoyl CoA, click chemistry, streptavidin-HRP fluorescence)", "assay_type": "biochemical", "settings": "Michaelis-Menten analysis, H4 peptide substrate varied; FIG. 6", "excerpt": "as §1, §2, §3, §4", "units": {"Km": "µM"}, "values": [
      {"molecule": "H4 peptide substrate: first 23 amino acids of H4 (SEQ. ID No. 1) with a biotin conjugated at the C-terminus [reference compound]", "Km": 13}
    ]},
    {"biological_target": "T1, recombinant HAT1", "test": "HAT1 modulator assay (4-pentynoyl CoA, click chemistry, streptavidin-HRP fluorescence)", "assay_type": "biochemical", "settings": "screen of fifty compounds; FIG. 8", "excerpt": "as §1, §2, §3, §4", "values": [
      {"molecule": "O=C(O)C(O)C(O)C(=O)O.OCC(O)C(O)C(O)C(O)C(O)c1nc2ccccc2[nH]1", "note": "(stereo not drawn) [NSC 56094, 1-(1H-Benzimidazol-2-yl)hexane-1,2,3,4,5,6-hexol; 2,3-dihydroxybutanedioic acid]", "modulation of HAT1 activity (agonist or antagonist)": "agonists"},
      {"molecule": "CC1(O)Nc2nc3c(ncn3C3OC(CO)C(O)C3O)c(=O)n2C1O", "note": "(stereo not drawn) [NSC 309109, 3-[3,4-Dihydroxy-5-(hydroxymethyl)oxolan-2-yl]-6,7-dihydroxy-6-methyl-5,7-dihydroimidazo[1,2-a]purin-9-one]", "modulation of HAT1 activity (agonist or antagonist)": "antagonists"},
      {"molecule": "OCC(O)C(OC1OC(CO)C(O)C(O)C1O)C(O)c1cnn(-c2ccccc2)n1", "note": "(stereo not drawn) [NSC 405936, 2-(Hydroxymethyl)-6-[1,3,4-trihydroxy-1-(2-phenyltriazol-4-yl)butan-2-yl]oxyoxane-3,4,5-triol]", "modulation of HAT1 activity (agonist or antagonist)": "agonists"},
      {"molecule": "nogalarol [NSC 86005]", "modulation of HAT1 activity (agonist or antagonist)": "antagonists"}
    ]},
    {"test_system": "CBP/p300 acetyltransferase", "test": "not given", "settings": "stated as known; cited from earlier work", "values": [
      {"molecule": "CC(C)(COP(=O)(O)OP(=O)(O)OC[C@H]1O[C@@H](n2cnc3c(N)ncnc32)[C@H](O)[C@@H]1OP(=O)(O)O)[C@@H](O)C(=O)NCCC(=O)NCCSC(=O)[C@@H](N)CCCCN", "note": "[lysyl CoA, reference compound]", "inhibition of CBP/p300 acetyltransferase": "known inhibitor of CBP/p300 acetyltransferase"}
    ]}
  ]
}
